Test results published in patent US10161932B2, “Azetidine-substituted fluorescent compounds” (HOWARD HUGHES MEDICAL INSTITUTE, priority 2014, dated 2018).

Key:
HaloTag = test: Labeling kinetics and brightness of HaloTag ligand conjugates in vitro; type: biochemical; settings: compared with TMR and Cy3 HaloTag ligands
Description: (§1) The labeling kinetics of TMR and JF549 HaloTag ligands were compared with a novel Cy3 HaloTag ligand while measuring the brightness and photon yield of the resulting conjugates.

[1] = system: HaloTag-histone 2B (H2B) fusion; test: Live-cell confocal labeling of HaloTag-H2B; type: cell-based; settings: live cells expressing HaloTag-H2B
Protocol: as §1
(§2) HeLa cells (ATCC) and U2OS cells (ATCC) were cultured in Dulbecco's modified eagle medium (DMEM; Life Technologies) supplemented with 10% v/v fetal bovine serum (FBS; Life Technologies), 1 mM GlutaMax (Life Technologies), and 1 mM sodium pyruvate (Sigma) and maintained at 37° C. in a humidified 5% v/v CO2 environment. These cell lines undergo regular mycoplasma testing by the Janelia Cell Culture Facility. Cells were transfected with HaloTag-H2B, HaloTag-tubulin, SnapTag-TetR, or SnapTag-H2B using an Amaxa Nucleofector (Lonza). […]
(§3) Three separate systems were used to acquire microscopic images. […] Other live-cell single super-resolution imaging experiments were recorded on a custom-built three-camera RAMM frame (ASI) microscope using an 1.4 NA PLAPON 60×OSC objective (Olympus), and a 300 mm focal length tube lens (LAO-300.0, Melles Griot), resulting in 100× overall magnification. […] Fluorescence was detected with a back-illuminated EMCCD camera (Andor Technology, Ixon Ultra DU-897U-CSO-EXF, 17 MHz EM amplifier), which was controlled through Micro-Manager (1.4.17).

SnapTag-H2B = test: Nuclear labeling of live HeLa cells expressing SnapTag-H2B; type: cell-based
Description: In this Example, an azetidinyl-coumarin label was used for cellular imaging. The performance of a commercial SnapTag ligand (i.e., Snap Cell 430) was compared to a novel azetidinyl derivative (Example 52), which was synthesized from a 7-azetidinyl-coumarin-3-carboxylic acid. Under identical transient transfection, labeling, and imaging conditions, H2B-SnapTag-expressing cells were stained with the red fluorescent nuclear stain DRAQ5 and either Snap Cell 430 or the azetidinyl ligand. Using the DRAQ5 staining as a spatial reference (FIGS. 26 and 27) the intensity of individual nuclei labeled by either SnapTag ligand was measured.
as §2, with “Facility.” for “Facility. Cells were transfected with HaloTag-H2B, HaloTag-tubulin, SnapTag-TetR, or SnapTag-H2B using an Amaxa Nucleofector (Lonza).”
Three separate systems were used to acquire microscopic images. […] Other live-cell single super-resolution imaging experiments were recorded on a custom-built three-camera RAMM frame (ASI) microscope using an 1.4 NA PLAPON 60×OSC objective (Olympus), and a 300 mm focal length tube lens (LAO-300.0, Melles Griot), resulting in 100× overall magnification. […]

HaloTag protein = settings: ligand 5 μM, 10 mM HEPES pH 7.3 with 0.1 mg·mL^−1 CHAPS
Protocol: To measure fluorescence of HaloTag ligands upon reaction with HaloTag protein, absorbance measurements were performed in 1 mL quartz cuvettes. HaloTag protein was used as a 100 μM solution in 75 mM NaCl, 50 mM TRIS. HCl, pH 7.4 with 50% v/v glycerol (TBS-glycerol). HaloTag ligands of JF646 and SiTMR (5 μM) were dissolved in 10 mM HEPES, pH 7.3 containing 0.1 mg·mL^−1 CHAPS. An aliquot of HaloTag protein (1.5 equiv) or an equivalent volume of TBS-glycerol blank was added and the resulting mixture was incubated until consistent absorbance signal was observed (˜30 min). […] Absorbance scans are averages (n=2).

HaloTag-H2B = test: No wash wide-field imaging of live HeLa cells expressing HaloTag-H2B; type: cell-based; settings: ligand 100 nM
Protocol: Next, “no wash” imaging experiments were performed using cells expressing the HaloTag-H2B fusion.
as §2, with “(Lonza). Before the imaging experiments, transfected cells were transferred onto a No. 1 coverslip (Warner Instruments) that was cleaned by Piranha solution (3:1 v/v mixture of concentrated H2SO4 and 30% v/v hydrogen peroxide).” for “(Lonza).”
as §3

[2] = Fluorescence lifetime measurement
Protocol: For fluorescence lifetime measurements, a pulse picker (Model 350-160, ConOptics) was placed in the laser beam to reduce the pulse frequency from 80 MHz to 20 MHz. Samples (2 μM dye diluted in 50 mM HEPES, pH 7.2, H2O, or CH3OH) were excited at 830 nm laser wavelength and 6 mW laser power. The emitted light was collected by the fast-timing APD and fed to the single-photon counting board (TimeHarp200; PicoQuant). Timing pulses were obtained from a PIN diode (DET01CFC; ThorLabs) monitoring the 20 MHz pulse train. The temporal impulse response of the system was determined by second harmonic generation of laser pulses using a thin nonlinear crystal in place of a dye sample. The lifetime decay data was fit to a single exponential decay function using a custom MATLAB program.

[3] = Quantum yield measurement (Quantaurus-QY spectrometer); type: physicochemical
Protocol: All reported quantum yield values were measured in under identical conditions using a Quantaurus-QY spectrometer (C11374, Hamamatsu). Measurements were carried out using dilute samples (A<0.1) and self-absorption corrections were performed using the instrument software. Reported values are averages (n=3).

[4] = Absorption and fluorescence spectroscopy of dyes; type: physicochemical
Protocol: Phosphate buffered saline (PBS) was at pH 7.4 unless otherwise noted.
Spectroscopy was performed using 1-cm path length, 3.5-mL quartz cuvettes from Starna Cells or 1-cm path length, 1.0-mL quartz microcuvettes from Hellma. All measurements were taken at ambient temperature (22±2° C.) in 10 mM HEPES, pH 7.3 buffer unless otherwise noted. Absorption spectra were recorded on a Cary Model 100 spectrometer (Varian); reported values for extinction coefficients (ε) are averages (n=3). Fluorescence spectra were recorded on a Cary Eclipse fluorometer (Varian). Normalized spectra are shown for clarity.

SMILES: O=C(NCCOCCOCCCCCCCl)c1ccc(C(=O)[O-])c(-c2c3ccc(=[N+]4CCC4)cc-3oc3cc(N4CCC4)ccc23)c1 [Example 21, 4-((2-(2-((6-Chlorohexyl)oxy)ethoxy)ethyl)carbamoyl)-2-(3,6-di(azetidin-1-yl)xanthylium-9-yl)benzoate]
- labeling kinetics (HaloTag): comparable labeling kinetics to the TMR ligand
- live-cell labeling / cell permeability [1]: efficiently crossed the membrane of live cells and selectively labeled the HaloTag protein

SMILES: Nc1nc(OCc2ccc(CNC(=O)c3cc4ccc(N5CCC5)cc4oc3=O)cc2)c2nc[nH]c2n1 [Example 52, N-(4-(((2-Amino-9H-purin-6-yl)oxy)methyl)benzyl)-7-(azetidin-1-yl)-2-oxo-2H-chromene-3-carboxamide]
- nuclear fluorescence intensity (SnapTag-H2B; DRAQ5 reference): brighter nuclear labeling
- median nuclear intensity relative to cells labeled with the commercial compound (SnapTag-H2B; n=50): five-fold higher

SMILES: C[Si]1(C)C2=CC(=[N+]3CCC3)C=CC2=C(c2cc(C(=O)NCCOCCOCCCCCCCl)ccc2C(=O)[O-])c2ccc(N3CCC3)cc21 [Example 35, 4-((2-(2-((6-Chlorohexyl)oxy)ethoxy)ethyl)carbamoyl)-2-(3,7-di(azetidin-1-yl)-5,5-dimethyldibenzo[b,e]silin-10-ylium-10(5H)-yl)benzoate]
- increase in absorbance upon reaction with excess HaloTag protein (HaloTag protein): 21 fold
- nonspecific staining / background (HaloTag-H2B): lower nonspecific staining

SMILES: Cl.N=c1ccc2c(-c3ccccc3C(=O)O)c3ccc(N)cc3oc-2c1 [rhodamine 110, reference compound]
- τ (fluorescence lifetime) [2]: 3.3 ns
- τ ([2]; Table 2, 10 mM HEPES pH 7.3 per table footnote): 3.26 ns
- ϕ ([3]; Table 2, 10 mM HEPES pH 7.3): 0.88
- ϕ (quantum yield) ([3]; aqueous buffer): 0.88
- ε ([4]; Table 2, 10 mM HEPES pH 7.3): 76,000 M^−1 cm^−1
- λem ([4]; Table 2, 10 mM HEPES pH 7.3): 520 nm
- λmax ([4]; Table 2, 10 mM HEPES pH 7.3): 497 nm
- ε (extinction coefficient) ([4]; aqueous buffer): 76000 M⁻¹ cm⁻¹
